Where no end group is shown, it is not given here.
Columns and labels:
[1] = system: HIV-1IIIB; experiment: HIV-1 antiviral assay in CEM-SS cells (MTS readout)
[2] = system: HCMV strain AD169; experiment: HCMV plaque formation assay in MRC-5 cells; assay type: cell-based
Method: Ganciclovir was used as positive control. […] The following day, peptides were added and tested in duplicates.

[3] = system: HUVEC; experiment: Endothelial tube formation assay; assay type: cell-based, human; details: 10 micrograms per ml, single peptide, 20 hours
Source text: Positive control was vehicle only.

[4] = system: IFNγ, spleen cells; experiment: Th1/Th2 cytokine profiling assay, IFNγ; assay type: cell-based, Balb/c mice; details: 10 micrograms per ml; Ovalbumin restimulation; 72 hours
Source text: (§1) The Balb/c mice (originated in 1923, it is a popular strain and is used in many different research disciplines. Also classified as an inbred from the production of 20 or more successive brother-sister matings, the Balb/c mouse is albino and small in size) were immunized on Days 1, 15, and 29 with Ovalbumin (Ovalbumin is the main protein found in egg white, commonly used to stimulate an immunological reaction in test animals) in PBS (5 micrograms/injection). On day 50, spleens of the mice were harvested (3 weeks after last boost with Ovalbumin). […] Thereafter, additional Ovalbumin was added to the cells at 10 micrograms/ml for in vitro restimulation of the cells. 72 hours later, cell supernatants were harvested and assayed using the Becton Dickinson Mouse Th1/Th2 Cytokine CBA Kit. This kit can be used to measure Interleukin-2 (IL-2), Interleukin-4 (IL-4), Interleukin-5 (IL-5), Interferon-γ (IFN-γ), and Tumor Necrosis Factor-α (TNF-α) protein levels in a single sample.

[5] = system: IL-2, spleen cells; experiment: Th1/Th2 cytokine profiling assay, IL-2; assay type: cell-based, Balb/c mice; details: 10 micrograms per ml; Ovalbumin restimulation; 72 hours
Source text: as §1

[6] = system: RAW 264.7 cells; experiment: Phagocytosis assay (Fluorescein-labeled Escherichia coli, flow cytometry); details: 10 micrograms per ml, single peptide, 30 min preincubation, 60 min ingestion
Method: RAW 264.7 (Mouse leukaemic monocyte macrophage cell line) cells were obtained from ATCC and grown in RPMI 1640 medium containing 10% FBS. Cells were incubated in 12×75 mm tubes at 37° C. with test peptides—10 micrograms per ml—for 30 min prior to adding Fluorescein-labeled Escherichia coli bacteria as the agent to be ingested. After the cells were incubated for additional 60 min at 37° C. and allowed to ingest the Fluorescein-labeled Escherichia coli bacteria, cells were fixed with 1% paraformaldehyde. The samples were then analyzed by flow cytometry to determine the amount of phagocytosis as a function of brightness (the greater the phagocytic activity, the more fluorescence in the macrophage population). Data are reported as % positive and the mean fluorescence intensity (MFI) of positively stained cells.

[7] = system: IL-4, spleen cells; experiment: Th1/Th2 cytokine profiling assay, IL-4; assay type: cell-based, Balb/c mice; details: 10 micrograms per ml; Ovalbumin restimulation; 72 hours
Source text: as §1

[8] = system: TNF-a, spleen cells; experiment: Th1/Th2 cytokine profiling assay, TNF-a; assay type: cell-based, Balb/c mice; details: 10 micrograms per ml; Ovalbumin restimulation; 72 hours
Source text: as §1

[9] = system: cyclic AMP generation in human peripheral blood mononuclear cells (PBMC); experiment: cAMP induction assay (ELISA); assay type: cell-based; details: single peptide, 10 min at 37° C.
Method: The cAMP kit was used as an immunoassay for the quantitative determination of cyclic AMP generation in human peripheral blood mononuclear cells (PBMC). PBMC were placed in 96-well microtitier plates (50 microliters of cells at 4×10^6/ml) and 50 microliters of medium alone (background control), forskolin (cAMP positive control; 50 micrograms per ml), or test peptides were added. Plates were mixed and incubated for 10 min at 37° C. and the cells were lysed by the addition of 50 microliters of 3% perchloric acid. NaOH was added to neutralize the samples. Plates were centrifuged for 15 min at 2500 rpm and the supernatants removed. The supernatants (diluted 2-fold in assay buffer) were then assayed for the levels of cAMP by ELISA.

[10] = system: IL-5, spleen cells; experiment: Th1/Th2 cytokine profiling assay, IL-5; assay type: cell-based, Balb/c mice; details: 10 micrograms per ml; Ovalbumin restimulation; 72 hours
Source text: as §1

[11] = system: hepatitis B virus (HBV) ayw strain; experiment: HBV experimental assay system, HepG2-2.2.15, secreted HBV DNA by TaqMan PCR; assay type: cell-based; details: 10 micrograms per ml, six days, HBV DNA in supernatant
[12] = system: Human Peripheral Blood Mononuclear Cells (PBMC), B cell proliferation; experiment: B cell proliferation assay (SAC plus Interleukin-2 stimulated PBMC, 3H-thymidine); assay type: cell-based; details: 10 micrograms per ml; single peptide; SAC plus IL-2
Method: Human Peripheral Blood Mononuclear Cells (PBMC) were obtained from normal human donors. The B cell proliferation was induced by stimulation of the cells with the B cell mitogen Staphylococcus aureus Cowans I (SAC) plus Interleukin-2, either in the absence (positive proliferation control), or in the presence of test peptides—10 micrograms per ml—to examine their effects on the B cell response. 10^5/well PBMC were plated in 96-well microtiter plates and assayed in duplicate with the peptides. […] At the end of incubation time, the plates were harvested and the cells counted by liquid scintillation for the incorporation of ^3H-thymidine as a measure of B cell proliferation.

Compound	antiviral activity of positive control compounds [1]	antiviral activity of positive control compound [2]	inhibition of the tube formation of endothelial cells [3] [%]	IFNγ spleen cells; TH1 response (% of control) [4]	IL-2 spleen cells (% of control) [5]	increase of the phagocytic activity of murine macrophages [6]	IL-4 spleen cells; TH2 response (% of control) [7]	TNF-a spleen cells; TH1 response (% of control) [8]	induction of cAMP formation in human peripheral blood cells [9] [%]	IL-5 spleen cells; TH2 response (% of control) [10]	inhibition of HBV replication as compared to the virus control infection [11]	inhibition of the proliferation of specifically stimulated human B-cells [12] [%]
Cc1cn([C@H]2C[C@H](N=[N+]=[N-])[C@@H](CO)O2)c(=O)[nH]c1=O [AZT]	expected levels of antiviral activity	–	–	–	–	–	–	–	–	–	–	–
Nc1nc(O)c2ncn(COC(CO)CO)c2n1 [Ganciclovir]	–	expected levels of antiviral activity	–	–	–	–	–	–	–	–	–	–
CC(C)(C)NC(=O)[C@@H]1CN(Cc2cccnc2)CCN1C[C@@H](O)C[C@@H](Cc1ccccc1)C(=O)N[C@H]1c2ccccc2C[C@H]1O [indinavir]	expected levels of antiviral activity	–	–	–	–	–	–	–	–	–	–	–
Lys-Val-Leu-Pro-Val-Pro-Gln-OH (KVLPVPQ-OH) [peptide 2]	–	–	15	41.5 % of control	67.3 % of control	20.0%	94.9 % of control	90.3 % of control	4.1	61.6 % of control	–	–
Tyr-Gly-Leu-Phe-OH (YGLF-OH) [peptide 1]	–	–	24	58.6 % of control	0.0 % of control	no inhibitory or activating effects	0.0 % of control	78.9 % of control	5.1	51.1 % of control	no effect	18

Reference: patent US20100197605A1, “THERAPEUTIC USE OF PEPTIDE YGLF AND COMBINATION WITH KVLPVPQ” (priority 2007, published 2010)
